Values after ≈ are worked out from the molar mass of the structure shown. Where two headings read alike, the source gives them in different places.
Assays:
Histamine H2 = Histamine H2 (Homo sapiens, UniProt P25021); experiment: Receptor selectivity (Cerep); assay type: binding
Muscarinic M1 = Muscarinic M1 (Homo sapiens, UniProt P11229); experiment: Receptor selectivity (Cerep); assay type: binding
Muscarinic M2 = Muscarinic M2 (Homo sapiens, UniProt P08172); experiment: Receptor selectivity (Cerep); assay type: binding
Muscarinic M3 = Muscarinic M3 (Homo sapiens, UniProt P20309); experiment: Receptor selectivity (Cerep); assay type: binding
Muscarinic M3, sequence (P20309 whole entry): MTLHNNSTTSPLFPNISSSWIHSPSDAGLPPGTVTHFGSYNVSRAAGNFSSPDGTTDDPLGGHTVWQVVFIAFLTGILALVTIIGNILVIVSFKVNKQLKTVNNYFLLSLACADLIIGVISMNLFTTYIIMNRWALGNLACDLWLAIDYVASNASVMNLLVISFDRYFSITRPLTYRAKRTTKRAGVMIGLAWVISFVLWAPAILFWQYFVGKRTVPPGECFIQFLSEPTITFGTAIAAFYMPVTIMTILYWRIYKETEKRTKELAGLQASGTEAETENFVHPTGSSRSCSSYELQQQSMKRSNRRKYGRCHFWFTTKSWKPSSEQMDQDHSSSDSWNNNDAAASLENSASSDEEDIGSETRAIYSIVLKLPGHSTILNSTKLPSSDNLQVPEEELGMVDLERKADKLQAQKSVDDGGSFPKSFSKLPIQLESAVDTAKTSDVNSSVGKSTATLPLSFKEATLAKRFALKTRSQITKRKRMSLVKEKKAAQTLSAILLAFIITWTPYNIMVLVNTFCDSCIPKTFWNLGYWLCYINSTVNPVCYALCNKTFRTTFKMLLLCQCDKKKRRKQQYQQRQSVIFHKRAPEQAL

Muscarinic M4 = Muscarinic M4 (Homo sapiens, UniProt P08173); experiment: Receptor selectivity (Cerep); assay type: binding
Muscarinic M4, sequence (P08173 whole entry): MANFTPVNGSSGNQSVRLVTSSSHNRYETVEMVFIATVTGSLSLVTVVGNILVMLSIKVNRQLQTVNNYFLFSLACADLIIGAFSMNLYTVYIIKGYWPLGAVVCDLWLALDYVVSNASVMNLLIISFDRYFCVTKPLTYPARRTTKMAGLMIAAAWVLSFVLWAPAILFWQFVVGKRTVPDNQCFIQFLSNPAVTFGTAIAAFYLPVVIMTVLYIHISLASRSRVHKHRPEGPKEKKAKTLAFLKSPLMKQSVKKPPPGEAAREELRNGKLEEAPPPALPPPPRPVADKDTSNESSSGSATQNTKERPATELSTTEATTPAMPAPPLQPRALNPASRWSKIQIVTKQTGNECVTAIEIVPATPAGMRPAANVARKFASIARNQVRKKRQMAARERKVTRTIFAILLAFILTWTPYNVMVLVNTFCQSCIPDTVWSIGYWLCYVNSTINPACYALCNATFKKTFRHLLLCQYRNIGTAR

Neurokinin NK1 = Neurokinin NK1 (Homo sapiens, UniProt P25103); experiment: Receptor selectivity (Cerep); assay type: binding
Neurokinin NK1, sequence (P25103 whole entry): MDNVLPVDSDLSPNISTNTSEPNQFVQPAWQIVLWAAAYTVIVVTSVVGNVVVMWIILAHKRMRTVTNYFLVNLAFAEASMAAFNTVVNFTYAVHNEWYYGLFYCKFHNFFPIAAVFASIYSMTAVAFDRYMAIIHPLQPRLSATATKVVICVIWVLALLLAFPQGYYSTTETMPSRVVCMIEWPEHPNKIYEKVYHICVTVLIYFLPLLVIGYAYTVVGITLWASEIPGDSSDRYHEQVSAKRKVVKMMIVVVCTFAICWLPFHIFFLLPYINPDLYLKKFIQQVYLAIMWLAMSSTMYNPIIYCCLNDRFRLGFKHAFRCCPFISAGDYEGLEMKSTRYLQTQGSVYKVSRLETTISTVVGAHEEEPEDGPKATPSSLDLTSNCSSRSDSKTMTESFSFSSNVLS

DA transporter = DA transporter (Homo sapiens, UniProt Q01959); experiment: Receptor selectivity (Cerep); assay type: binding
hERG = hERG (Homo sapiens, UniProt Q12809); experiment: hERG patch clamp; assay type: cell-based
hERG, sequence (Q12809 whole entry): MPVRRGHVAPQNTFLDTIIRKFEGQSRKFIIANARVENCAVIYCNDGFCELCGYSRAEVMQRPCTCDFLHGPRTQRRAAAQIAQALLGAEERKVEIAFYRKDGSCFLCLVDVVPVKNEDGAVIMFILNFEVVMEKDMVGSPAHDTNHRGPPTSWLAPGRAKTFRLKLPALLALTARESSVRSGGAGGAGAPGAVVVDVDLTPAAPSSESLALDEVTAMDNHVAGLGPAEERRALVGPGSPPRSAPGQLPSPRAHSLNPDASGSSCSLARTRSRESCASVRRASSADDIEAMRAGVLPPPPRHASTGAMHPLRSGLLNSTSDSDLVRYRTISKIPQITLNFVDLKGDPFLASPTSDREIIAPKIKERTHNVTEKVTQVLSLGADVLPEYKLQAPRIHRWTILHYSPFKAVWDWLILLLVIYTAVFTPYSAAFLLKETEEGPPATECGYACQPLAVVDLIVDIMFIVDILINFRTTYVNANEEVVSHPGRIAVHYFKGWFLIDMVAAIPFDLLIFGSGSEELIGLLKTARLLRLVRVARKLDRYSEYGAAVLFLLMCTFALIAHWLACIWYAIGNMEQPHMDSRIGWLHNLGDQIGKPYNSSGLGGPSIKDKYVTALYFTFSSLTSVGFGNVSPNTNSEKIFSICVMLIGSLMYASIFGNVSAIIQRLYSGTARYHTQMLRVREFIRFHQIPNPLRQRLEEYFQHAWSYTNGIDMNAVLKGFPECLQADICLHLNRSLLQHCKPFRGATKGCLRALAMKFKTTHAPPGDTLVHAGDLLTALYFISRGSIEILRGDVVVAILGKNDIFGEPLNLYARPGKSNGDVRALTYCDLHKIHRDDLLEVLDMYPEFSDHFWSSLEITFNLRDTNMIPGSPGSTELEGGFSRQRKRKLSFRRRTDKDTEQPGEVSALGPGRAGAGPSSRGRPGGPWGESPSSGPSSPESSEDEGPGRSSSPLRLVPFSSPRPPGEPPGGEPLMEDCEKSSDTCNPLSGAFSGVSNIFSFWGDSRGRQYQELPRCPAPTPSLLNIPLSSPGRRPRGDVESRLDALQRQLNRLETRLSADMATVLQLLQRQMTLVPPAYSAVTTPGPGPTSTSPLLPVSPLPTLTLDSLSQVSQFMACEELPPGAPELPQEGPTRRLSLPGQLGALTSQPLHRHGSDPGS

Equilibrium solubility = assay type: physicochemical; conditions: thermodynamic from solid
[1] = In vitro metabolic stability, mouse; assay type: in vitro ADME; conditions: mouse (M); read-out: In vitro metabolic stability t1/2
[2] = In vitro metabolic stability, rat; assay type: in vitro ADME; conditions: rat (R); read-out: In vitro metabolic stability t1/2
[3] = In vitro metabolic stability, monkey; assay type: in vitro ADME; conditions: monkey (Mo); read-out: In vitro metabolic stability t1/2
[4] = In vitro metabolic stability, human; assay type: in vitro ADME; conditions: human (H); read-out: In vitro metabolic stability t1/2
CYP 1A2 = CYP 1A2 (Homo sapiens, UniProt P05177); experiment: CYP inhibition; assay type: in vitro ADME
CYP 1A2, sequence (P05177 whole entry): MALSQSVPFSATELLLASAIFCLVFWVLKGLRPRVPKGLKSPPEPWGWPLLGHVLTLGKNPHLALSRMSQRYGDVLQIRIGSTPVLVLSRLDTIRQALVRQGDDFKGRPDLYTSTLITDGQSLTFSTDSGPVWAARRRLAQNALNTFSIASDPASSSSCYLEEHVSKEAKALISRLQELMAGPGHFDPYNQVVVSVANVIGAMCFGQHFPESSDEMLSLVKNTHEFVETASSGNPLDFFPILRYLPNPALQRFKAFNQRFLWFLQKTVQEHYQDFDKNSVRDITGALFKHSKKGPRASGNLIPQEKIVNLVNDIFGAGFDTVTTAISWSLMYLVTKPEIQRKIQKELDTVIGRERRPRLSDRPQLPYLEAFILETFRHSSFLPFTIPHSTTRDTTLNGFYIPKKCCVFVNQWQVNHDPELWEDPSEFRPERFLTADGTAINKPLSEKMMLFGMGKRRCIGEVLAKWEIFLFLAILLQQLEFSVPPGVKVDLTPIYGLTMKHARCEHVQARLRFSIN

CYP 2C9 = CYP 2C9 (Homo sapiens, UniProt P11712); experiment: CYP inhibition; assay type: in vitro ADME
CYP 2C9, sequence (P11712 whole entry): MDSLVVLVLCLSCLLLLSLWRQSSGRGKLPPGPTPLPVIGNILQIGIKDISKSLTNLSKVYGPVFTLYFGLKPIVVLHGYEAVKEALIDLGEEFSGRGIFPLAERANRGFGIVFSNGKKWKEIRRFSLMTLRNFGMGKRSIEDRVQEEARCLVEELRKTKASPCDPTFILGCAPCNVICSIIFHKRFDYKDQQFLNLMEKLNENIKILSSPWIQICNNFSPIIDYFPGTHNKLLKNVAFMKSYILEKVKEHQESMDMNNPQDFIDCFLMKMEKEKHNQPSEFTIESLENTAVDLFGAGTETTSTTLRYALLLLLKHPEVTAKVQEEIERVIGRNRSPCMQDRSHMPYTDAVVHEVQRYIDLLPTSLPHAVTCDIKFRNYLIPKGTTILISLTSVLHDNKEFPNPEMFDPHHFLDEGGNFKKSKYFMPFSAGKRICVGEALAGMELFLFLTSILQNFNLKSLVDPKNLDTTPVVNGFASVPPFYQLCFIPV

CYP 2C19 = CYP 2C19 (Homo sapiens, UniProt P33261); experiment: CYP inhibition; assay type: in vitro ADME
CYP 2D6 = CYP 2D6 (Homo sapiens, UniProt P10635); experiment: CYP inhibition; assay type: in vitro ADME
CYP 2D6, sequence (P10635 whole entry): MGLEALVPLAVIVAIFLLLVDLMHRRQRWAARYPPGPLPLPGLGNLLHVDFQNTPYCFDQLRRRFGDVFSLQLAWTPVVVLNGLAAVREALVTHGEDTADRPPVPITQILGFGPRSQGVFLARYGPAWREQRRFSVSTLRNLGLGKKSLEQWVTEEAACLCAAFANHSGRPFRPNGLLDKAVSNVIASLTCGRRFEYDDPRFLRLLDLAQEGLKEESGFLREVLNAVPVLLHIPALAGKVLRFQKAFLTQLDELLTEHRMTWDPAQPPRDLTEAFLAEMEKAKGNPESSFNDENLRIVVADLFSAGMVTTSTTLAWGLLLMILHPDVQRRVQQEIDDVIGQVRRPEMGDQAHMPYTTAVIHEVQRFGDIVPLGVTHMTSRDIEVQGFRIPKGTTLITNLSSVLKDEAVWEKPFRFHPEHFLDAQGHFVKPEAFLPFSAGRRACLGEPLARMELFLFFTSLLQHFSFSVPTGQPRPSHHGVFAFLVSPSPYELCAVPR

Caco-2 permeability = assay type: in vitro ADME; conditions: human
Protein binding, mouse = assay type: in vitro ADME; conditions: mouse (M)
Protein binding, dog = assay type: in vitro ADME; conditions: dog (D)
Protein binding, human = assay type: in vitro ADME; conditions: human (H)
Rat bioavailability = conditions: in vivo, po
Mouse bioavailability = assay type: in vivo
Monkey bioavailability = conditions: in vivo, po
[5] = test system: Karpas-299 tumor xenografts; conditions: for anti-tumor efficacy: amorphous HCl salt
Method: Anti-Tumor Efficacy Studies—General Protocol
(§1) The tumor volumes were then calculated with the formula of 0.5236*L*W*(L+W)/2.
Anti-Tumor Efficacy in NPM-ALK Positive Sup-M2 and Karpas-299 ALCL Tumor Xenograft Models in Mice

[6] = test system: Detroit 562 HNSCC xenografts
From the text: (§2) Anti-Tumor Efficacy Studies in Human Tumor Xenografts of Hormone-Independent Prostate Carcinoma, NSCL Carcinoma and HNSC Carcinoma
(§3) The human prostate carcinoma cell lines, CWR22 and PC3, and human head and neck squamous cell carcinoma cell line Detroit 562 were obtained from American Tissue Culture Collection (ATCC, Manassas, Va.). […] Human non-small cell lung cancer cell line HCC-827 and human breast cancer cell line BT474 were also purchased from the ATCC (Manassas, Va.) and cultured in RPMI (Cat #10-040, Mediatech Inc, Manassas, Va.) with 10% FBS. The rabbit phospho-FAK (Tyr397) (Cat #3283) and FAK antibodies (Cat #3285) were purchased from Cell Signaling Technology (Beverly, Mass.).
(§4) The mice were then monitored daily.
as §1

[7] = test system: HCC-827 human NSCL carcinoma xenografts
From the text: as §2, §3, §4, §1

[8] = test system: PC-3 prostate tumor xenografts
From the text: as §2, §3, §4, §1

[9] = 10 days
in vivo = conditions: both, rat, po
Method: Animals were dosed via oral gavage.
Assessment of toxicity was based on mortality, clinical observations, body weights, body weight changes, food consumption, ophthalmic examinations, and clinical and anatomic pathology. Blood samples were collected for toxicokinetic evaluations.

CYP3A4 = CYP3A4 induction in vitro; conditions: @ 10 μM
[10] = test system: NCI-H2228 NSCLC tumor xenografts; experiment: Anti-tumor activity, EML4-ALK positive NCI-H2228 NSCLC xenograft
From the text: Anti-Tumor Activity in EML4-ALK Positive (NCI-H2228 and NCI-H3122) NSCLC Tumor Xenografts in Mice with Oral Dosing
Generation of EML4-ALK-positive and EML4-ALK-negative NSCLC Subcutaneous Tumor Xenografts in Scid Mice Female Scid/Beige mice (6-8 weeks, Taconic, Hudson. N.Y.) were maintained 5/cage in microisolator units on a standard laboratory diet (Teklad Labchow, Harlan Teklad, Madison, Wis.). Animals were housed under humidity- and temperature controlled conditions and the light/dark cycle was set at 12-hour intervals. Mice were quarantined at least 1 week prior to experimental manipulation. […] The mice were monitored until the tumor xenograft volumes reached 200-500 mm3.
The length (L) and width (W) of each tumor were measured with vernier calipers and the mouse body weight was determined every two to three days. […] Percent tumor growth inhibition (% TGI) was calculated as follows: (tumor volume of the control group at end of treatment—tumor volume of the treated group at the end of treatment)/tumor volume of the control group at the end of treatment. […] Complete tumor regression (CR) was defined as the tumor volume of the treated group at the end of treatment being less than 5% of the tumor volume of the treated group as the start of treatment. Statistical analyses of tumor volumes and mouse body weights were carried out with the Mann-Whitney Rank Sum Test. Plasma and tumor samples were obtained at 2 hours post final dose at each dose level, and the compound levels in plasma and tumor lysates were measured by LC-MS/MS

[11] = four weeks of additional treatment at 55 mg/kg qd po

Histamine H2, sequence (P25021 whole entry): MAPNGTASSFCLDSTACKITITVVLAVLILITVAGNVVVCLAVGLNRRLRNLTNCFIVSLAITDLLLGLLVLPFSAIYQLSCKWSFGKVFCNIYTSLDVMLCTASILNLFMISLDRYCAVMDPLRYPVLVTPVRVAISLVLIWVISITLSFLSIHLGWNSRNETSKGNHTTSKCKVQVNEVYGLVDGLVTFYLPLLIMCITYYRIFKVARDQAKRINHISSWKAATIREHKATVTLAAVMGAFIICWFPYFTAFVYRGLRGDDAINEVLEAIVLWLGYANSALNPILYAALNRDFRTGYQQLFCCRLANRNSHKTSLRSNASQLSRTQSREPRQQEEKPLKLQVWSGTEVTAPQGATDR
Muscarinic M1, sequence (P11229 whole entry): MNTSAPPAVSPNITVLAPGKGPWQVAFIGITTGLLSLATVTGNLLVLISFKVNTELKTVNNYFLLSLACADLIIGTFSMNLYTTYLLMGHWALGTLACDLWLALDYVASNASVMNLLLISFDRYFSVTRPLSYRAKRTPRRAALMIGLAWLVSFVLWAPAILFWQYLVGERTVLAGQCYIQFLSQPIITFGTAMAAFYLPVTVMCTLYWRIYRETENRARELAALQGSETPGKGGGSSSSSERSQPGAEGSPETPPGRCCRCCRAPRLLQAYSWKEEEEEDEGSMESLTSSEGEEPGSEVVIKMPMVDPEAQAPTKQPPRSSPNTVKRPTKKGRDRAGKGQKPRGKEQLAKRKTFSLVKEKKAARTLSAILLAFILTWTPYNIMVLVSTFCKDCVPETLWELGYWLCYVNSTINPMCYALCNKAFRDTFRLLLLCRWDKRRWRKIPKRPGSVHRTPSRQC

In the case of `CNC(=O)c1ccccc1Nc1nc(Nc2ccc3c(c2OC)CCC[C@H](N2CCN(CCO)CC2)C3)ncc1Cl` [CEP-37440, 2-[[5-chloro-2-[[(6S)-6-[4-(2-hydroxyethyl)piperazin-1-yl]-1-methoxy-6,7,8,9-tetrahydro-5H-benzo[7]annulen-2-yl]amino]pyrimidin-4-yl]amino]-N-methyl-benzamide], the Ki (Histamine H2) is reported as 5200 nM, the Ki (Muscarinic M1) is reported as 2460 nM and the Ki (Muscarinic M2) is reported as 2000 nM. The Ki (Muscarinic M3) was 3500 nM, the Ki (Muscarinic M4) was 460 nM and the Ki (Neurokinin NK1) was 1200 nM. It also gave a Ki (DA transporter) of 2100 nM, an IC50 (hERG) of over 10000 nM and a solubility thermodynamic (Equilibrium solubility; pH 2, simulated gastric fluid, read-out: Equilibrium solubility at pH 2) of over 1000 µg/mL. It also gave a solubility thermodynamic (Equilibrium solubility; pH 7.4, aqueous buffer, read-out: Equilibrium solubility at pH 7.4) of 280 µg/mL (≈ 483 µM), a half-life [1] of over 40 min and a half-life [2] of over 40 min. It also gave a half-life [3] of 21 min, a half-life [4] of over 40 min and an IC50 (CYP 1A2) of over 30000 nM. It also gave an IC50 (CYP 2C9) of over 30000 nM, an IC50 (CYP 2C19) of over 20000 nM and an IC50 (CYP 2D6) of over 30000 nM. It also gave a Papp (Caco-2 permeability) of 1.26 ×10⁻⁶ cm/s, a Protein binding (Protein binding, mouse) of 85 % bound and a Protein binding (Protein binding, dog) of 94 % bound. The Protein binding (Protein binding, human) was 95 % bound, the bioavailability (Rat bioavailability) was over 42% and the Mouse bioavailability (Mouse bioavailability; CD-1 mouse, CEP-37440 as amorphous HCl salt) was 102%. The bioavailability (Mouse bioavailability; Scid, mouse, in vivo, po) was 99%, the bioavailability (Monkey bioavailability; 10 mg/kg) was 50% and the bioavailability (Monkey bioavailability; 30 mg/kg) was 74%. The anti-tumor efficacy ([5]; 30 mg/kg bid, 12 days) was “complete or near complete tumor regression”, the anti-tumor efficacy ([5]; 30 mg/kg qd) was “significant anti-tumor activity” and the anti-tumor efficacy ([5]; 55 mg/kg, qd, 12 days) was “complete or near complete tumor regression”. For the same compound, the “tolerability, body weight” value ([5]; all dosing regimens) was “well tolerated with no overt toxicity and no significant body weight loss”, the “incidence of partial tumor regressions” value ([6]; 30 mg/kg bid, 28-day period) was 20% and the “incidence of partial tumor regressions” value ([6]; 55 mg/kg bid, 28-day period) was 30%. For the same compound, the anti-tumor efficacy ([6]; 28-day period) was “tumor stasis”, the tolerability ([6]; all dosing regimens) was “well-tolerated with no morbidity or mortality observed” and the “tumor pharmacodynamic inhibition of FAK activation” value ([6]; no effect on total FAK expression levels) was “clear tumor pharmacodynamic effect for inhibition of FAK activation”. The TGI ([7]; 30 mg/kg bid, day 28) was 60%, the TGI ([7]; 55 mg/kg bid, day 28) was 80% and the “incidence of complete tumor regressions” value ([7]; 55 mg/kg bid, day 28) was 30%. The “incidence of partial tumor regressions” value ([7]; 55 mg/kg bid, day 28) was 30%, the “incidence of tumor regressions” value ([7]; 55 mg/kg bid, day 28) was 60% and the “tolerability, body weight” value ([7]; mouse, in vivo) was “well tolerated, with no overt toxicity or significant body weight loss observed”. The “incidence of complete tumor regressions” value ([8]; 36 day period, oral) was 10%, the “tumor growth inhibition (TGI)” value ([8]; 36 day period, oral, equivalent doses of both compounds) was 55% and the “tolerability, body weight” value ([8]; all dosing regimens) was “well tolerated with no overt toxicity or significant body weight loss observed”. The “doses with drug-related adverse findings (body weight, bone marrow, spleen, thymus, lymph node, lung)” value ([9]; daily gavage) was at least 30 mg/kg/day, the dose well tolerated ([9]; rat, in vivo) was 10 mg/kg/day and the NOAEL at 4 weeks (in vivo) was 10 mg/kg/day. The “CYP3A4 induction in vitro” value (CYP3A4) was 1.5 @ 10 μM fold, the “mice with sustained tumor regressions, no tumor re-emergence” value ([10]; 40 days following cessation of treatment) was 100% and the “animals with sustained complete tumor regression” value [10, 11] was 100%. For the same compound, the “tolerability, body weight” value [10, 11] was “well tolerated with no overt toxicity and no significant body weight loss”.

Source: patent publication US10632119B2, “Fused bicyclic 2,4-diaminopyrimidine derivative as a dual ALK and FAK inhibitor” (priority 2012, dated 2020)
